# Patent US6734301B2, “2,3,4,5-Tetrahydro-1H-[1,4]diazepino[1,7-a]indole compounds” (Pharmacia & Upjohn Company, priority 2000, dated 2004)
# Structures can show the parent of a compound that is named as a salt.
row,SMILES,melting point
1,CN1CCc2cc3ccccc3n2CC1,59 to 60 °C
2,CCN1CCc2cc3ccccc3n2CC1,44 to 46 °C
3,COc1ccc(NC(=O)C(=O)c2c3n(c4ccccc24)CCNCC3)cc1,177 to 180 °C
4,COc1ccc(NC(=O)C(=O)c2c3n(c4ccccc24)CCNCC3)cc1Cl,221 to 223 °C
5,CCCN1CCc2cc3ccccc3n2CC1 (as salt: hydrochloride),257 to 259 °C
6,Brc1ccc2cc3n(c2c1)CCNCC3 (as salt: hydrochloride),292 to 295 °C
7,"CC(C)(C)OC(=O)N1CCc2cc3ccccc3n2CC1 [Example 51, tert-butyl 1,2,4,5-tetrahydro-3H-[1,4]diazepino[1,7-a]indole-3-carboxylate]",129 to 132 °C

# Results, then the compound that gave them:
row,melting point,SMILES
1,186 to 188 °C,O=Cc1c2n(c3cc(Br)ccc13)CCNCC2
2,77 to 80 °C,NCCc1c2n(c3ccccc13)CCNCC2
3,157 to 160 °C,O=C(Nc1ccccc1)C(=O)c1c2n(c3ccccc13)CCNCC2
4,167 to 168 °C,O=Cc1c2n(c3ccccc13)CCNCC2
5,214 to 215 °C,NC(=O)C(=O)c1c2n(c3ccccc13)CCNCC2
6,131 to 133 °C,O=C(c1c2n(c3ccccc13)CCNCC2)C(F)(F)F
7,184.5 to 185.5 °C,O=C(Nc1ccc(F)cc1F)C(=O)c1c2n(c3ccccc13)CCNCC2
8,161 to 164 °C,N#Cc1c2n(c3ccccc13)CCNCC2
9,> 250 °C,Clc1c2n(c3ccccc13)CCNCC2 (as salt: hydrochloride)
10,225 to 226 °C,"O=[N+]([O-])/C=C/c1c2n(c3ccccc13)CCNCC2 [Example 52, 11-[(E)-2-nitroethenyl]-2,3,4,5-tetrahydro-1H-[1,4]diazepino[1,7-a]indole]"
